Results taken from ChEMBL document CHEMBL4507304, “Data for DCP probe TP-021” (2021).

Key:
[1] = system: Tyrosine-protein kinase ABL1 (Homo sapiens), P00519 [F317L]; conditions: Compound concentration 1000.0 nM
[2] = system: Tyrosine-protein kinase ABL1 (Homo sapiens), P00519 [H396P]; conditions: Compound concentration 1000.0 nM
[3] = target: Tyrosine-protein kinase ABL1 (Homo sapiens) (UniProt P00519); conditions: Compound concentration 1000.0 nM
[4] = target: Tyrosine-protein kinase ABL1 (Homo sapiens) (UniProt P00519); conditions: Compound concentration 1000.0 nM; remark: listed apart in the source
[5] = system: ALK tyrosine kinase receptor (Homo sapiens), Q9UM73 [L1196M]; conditions: Compound concentration 1000.0 nM
[6] = target: Cyclin-dependent kinase 7 (Homo sapiens) (UniProt P50613); conditions: Compound concentration 1000.0 nM
Cyclin-dependent kinase 7 (Homo sapiens), sequence (P50613 whole entry): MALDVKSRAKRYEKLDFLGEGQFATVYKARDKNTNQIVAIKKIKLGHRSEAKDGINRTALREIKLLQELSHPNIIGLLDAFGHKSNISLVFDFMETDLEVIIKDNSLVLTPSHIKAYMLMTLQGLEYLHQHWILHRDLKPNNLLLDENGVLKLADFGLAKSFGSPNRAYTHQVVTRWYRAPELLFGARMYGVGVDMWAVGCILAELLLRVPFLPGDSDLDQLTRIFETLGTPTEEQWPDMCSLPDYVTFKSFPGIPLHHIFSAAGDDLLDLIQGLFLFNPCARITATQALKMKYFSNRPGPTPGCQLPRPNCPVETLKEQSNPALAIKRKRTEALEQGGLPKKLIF

[7] = target: Serine/threonine-protein kinase Chk2 (Homo sapiens) (UniProt O96017); conditions: Compound concentration 1000.0 nM
[8] = target: Dual specificity protein kinase CLK3 (Homo sapiens) (UniProt P49761); conditions: Compound concentration 1000.0 nM
Dual specificity protein kinase CLK3 (Homo sapiens), sequence (P49761 whole entry, looked up): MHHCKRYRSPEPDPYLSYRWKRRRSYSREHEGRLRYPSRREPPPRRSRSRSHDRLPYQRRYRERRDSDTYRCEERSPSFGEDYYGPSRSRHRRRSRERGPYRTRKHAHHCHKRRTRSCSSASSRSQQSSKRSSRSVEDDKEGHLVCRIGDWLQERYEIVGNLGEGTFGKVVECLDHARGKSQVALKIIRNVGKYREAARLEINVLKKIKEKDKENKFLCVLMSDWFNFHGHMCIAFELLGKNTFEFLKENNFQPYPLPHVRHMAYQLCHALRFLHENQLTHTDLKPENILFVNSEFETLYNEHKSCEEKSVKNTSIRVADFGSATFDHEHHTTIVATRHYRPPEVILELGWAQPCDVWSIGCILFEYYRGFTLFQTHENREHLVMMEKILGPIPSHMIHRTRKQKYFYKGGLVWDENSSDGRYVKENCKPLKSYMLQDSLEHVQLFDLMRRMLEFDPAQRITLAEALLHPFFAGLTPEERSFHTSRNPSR

[9] = target: Macrophage colony-stimulating factor 1 receptor (Homo sapiens) (UniProt P07333); conditions: Compound concentration 1000.0 nM
[10] = target: Casein kinase I isoform epsilon (Homo sapiens) (UniProt P49674); conditions: Compound concentration 1000.0 nM
[11] = target: Megakaryocyte-associated tyrosine-protein kinase (Homo sapiens) (UniProt P42679); conditions: Compound concentration 1000.0 nM
[12] = target: Serine/threonine-protein kinase DCLK1 (Homo sapiens) (UniProt O15075); conditions: Compound concentration 1000.0 nM
Serine/threonine-protein kinase DCLK1 (Homo sapiens), sequence (O15075 whole entry): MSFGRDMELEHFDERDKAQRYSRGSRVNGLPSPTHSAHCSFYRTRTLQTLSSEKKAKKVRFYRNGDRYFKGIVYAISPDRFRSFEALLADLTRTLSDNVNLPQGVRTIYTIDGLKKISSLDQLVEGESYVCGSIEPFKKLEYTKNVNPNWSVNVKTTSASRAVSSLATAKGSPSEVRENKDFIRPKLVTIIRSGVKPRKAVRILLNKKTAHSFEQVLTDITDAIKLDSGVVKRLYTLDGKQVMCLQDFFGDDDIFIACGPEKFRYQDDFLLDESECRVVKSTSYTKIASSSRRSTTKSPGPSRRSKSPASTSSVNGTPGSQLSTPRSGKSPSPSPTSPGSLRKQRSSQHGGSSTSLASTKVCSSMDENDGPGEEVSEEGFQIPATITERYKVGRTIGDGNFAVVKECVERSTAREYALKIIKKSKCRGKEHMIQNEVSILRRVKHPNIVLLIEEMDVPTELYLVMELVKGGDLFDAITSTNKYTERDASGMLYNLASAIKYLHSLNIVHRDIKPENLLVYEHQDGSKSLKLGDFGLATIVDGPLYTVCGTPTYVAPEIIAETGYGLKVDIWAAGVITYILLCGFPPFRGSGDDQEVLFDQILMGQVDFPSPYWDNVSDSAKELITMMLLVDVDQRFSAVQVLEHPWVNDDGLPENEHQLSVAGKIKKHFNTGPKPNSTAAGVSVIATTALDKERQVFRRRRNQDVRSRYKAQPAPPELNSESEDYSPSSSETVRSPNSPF

[13] = target: Serine/threonine-protein kinase 17A (Homo sapiens) (UniProt Q9UEE5); conditions: Compound concentration 1000.0 nM
[14] = system: Receptor-type tyrosine-protein kinase FLT3 (Homo sapiens), P36888 [D835H]; conditions: Compound concentration 1000.0 nM
[15] = system: Receptor-type tyrosine-protein kinase FLT3 (Homo sapiens), P36888 [N841I]; conditions: Compound concentration 1000.0 nM
[16] = target: Receptor-type tyrosine-protein kinase FLT3 (Homo sapiens) (UniProt P36888); conditions: Compound concentration 1000.0 nM
[17] = target: Rhodopsin kinase GRK7 (Homo sapiens) (UniProt Q8WTQ7); conditions: Compound concentration 1000.0 nM
[18] = target: Tyrosine-protein kinase ITK/TSK (Homo sapiens) (UniProt Q08881); conditions: Compound concentration 1000.0 nM
[19] = target: Mast/stem cell growth factor receptor Kit (Homo sapiens) (UniProt P10721); conditions: Compound concentration 1000.0 nM
[20] = target: Microtubule-associated serine/threonine-protein kinase 1 (Homo sapiens) (UniProt Q9Y2H9); conditions: Compound concentration 1000.0 nM
[21] = target: Myosin-IIIb (Homo sapiens) (UniProt Q8WXR4); conditions: Compound concentration 1000.0 nM
[22] = target: Serine/threonine-protein kinase Nek1 (Homo sapiens) (UniProt Q96PY6); conditions: Compound concentration 1000.0 nM
[23] = target: Serine/threonine-protein kinase Nek10 (Homo sapiens) (UniProt Q6ZWH5); conditions: Compound concentration 1000.0 nM
[24] = target: Mitogen-activated protein kinase 13 (Homo sapiens) (UniProt O15264); conditions: Compound concentration 1000.0 nM
[25] = target: Cyclin-dependent kinase 16 (Homo sapiens) (UniProt Q00536); conditions: Compound concentration 1000.0 nM
[26] = target: Platelet-derived growth factor receptor beta (Homo sapiens) (UniProt P09619); conditions: Compound concentration 1000.0 nM
[27] = target: Phosphatidylinositol 4,5-bisphosphate 3-kinase catalytic subunit gamma isoform (Homo sapiens) (UniProt P48736); conditions: Compound concentration 1000.0 nM
[28] = target: Phosphatidylinositol 4-phosphate 5-kinase type-1 gamma (Homo sapiens) (UniProt O60331); conditions: Compound concentration 1000.0 nM
[29] = target: Ribosomal protein S6 kinase alpha-6 (Homo sapiens) (UniProt Q9UK32); conditions: Compound concentration 1000.0 nM
[30] = target: STE20-like serine/threonine-protein kinase (Homo sapiens) (UniProt Q9H2G2); conditions: Compound concentration 1000.0 nM
[31] = target: Tyrosine-protein kinase SYK (Homo sapiens) (UniProt P43405); conditions: Compound concentration 1000.0 nM
[32] = target: Serine/threonine-protein kinase tousled-like 1 (Homo sapiens) (UniProt Q9UKI8); conditions: Compound concentration 1000.0 nM
[33] = target: Serine/threonine-protein kinase tousled-like 2 (Homo sapiens) (UniProt Q86UE8); conditions: Compound concentration 1000.0 nM
[34] = target: TRAF2 and NCK-interacting protein kinase (Homo sapiens) (UniProt Q9UKE5); conditions: Compound concentration 1000.0 nM
[35] = target: BDNF/NT-3 growth factors receptor (Homo sapiens) (UniProt Q16620); conditions: Compound concentration 1000.0 nM
[36] = target: Dual specificity protein kinase TTK (Homo sapiens) (UniProt P33981); conditions: Compound concentration 1000.0 nM
Dual specificity protein kinase TTK (Homo sapiens), sequence (P33981 whole entry): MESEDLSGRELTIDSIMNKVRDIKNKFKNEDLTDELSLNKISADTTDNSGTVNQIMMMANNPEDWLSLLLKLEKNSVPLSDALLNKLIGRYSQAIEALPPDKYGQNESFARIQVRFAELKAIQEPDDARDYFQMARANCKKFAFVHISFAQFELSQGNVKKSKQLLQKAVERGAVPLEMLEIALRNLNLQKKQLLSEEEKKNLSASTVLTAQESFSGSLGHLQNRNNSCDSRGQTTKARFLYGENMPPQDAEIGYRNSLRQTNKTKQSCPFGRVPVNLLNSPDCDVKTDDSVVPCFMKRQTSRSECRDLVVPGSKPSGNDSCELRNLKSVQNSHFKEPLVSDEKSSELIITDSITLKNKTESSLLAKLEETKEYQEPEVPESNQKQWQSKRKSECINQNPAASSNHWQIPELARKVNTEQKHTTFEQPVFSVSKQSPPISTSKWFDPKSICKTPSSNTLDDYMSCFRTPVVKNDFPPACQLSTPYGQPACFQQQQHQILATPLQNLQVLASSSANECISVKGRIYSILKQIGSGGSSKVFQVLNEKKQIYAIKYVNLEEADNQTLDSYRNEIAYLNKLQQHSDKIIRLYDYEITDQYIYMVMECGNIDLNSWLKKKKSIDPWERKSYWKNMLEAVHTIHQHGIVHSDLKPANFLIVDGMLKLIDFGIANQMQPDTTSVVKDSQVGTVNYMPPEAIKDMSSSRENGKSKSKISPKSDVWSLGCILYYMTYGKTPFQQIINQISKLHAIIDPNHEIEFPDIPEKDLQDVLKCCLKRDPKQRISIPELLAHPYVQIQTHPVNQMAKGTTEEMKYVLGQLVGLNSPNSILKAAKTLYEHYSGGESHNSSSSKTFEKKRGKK

[37] = target: Serine/threonine-protein kinase ULK2 (Homo sapiens) (UniProt Q8IYT8); conditions: Compound concentration 1000.0 nM
[38] = target: Phosphatidylinositol 3-kinase catalytic subunit type 3 (Homo sapiens) (UniProt Q8NEB9); conditions: Compound concentration 1000.0 nM
[39] = target: Serine/threonine-protein kinase WNK1 (Homo sapiens) (UniProt Q9H4A3); conditions: Compound concentration 1000.0 nM
Serine/threonine-protein kinase WNK1 (Homo sapiens), sequence (Q9H4A3 whole entry, looked up): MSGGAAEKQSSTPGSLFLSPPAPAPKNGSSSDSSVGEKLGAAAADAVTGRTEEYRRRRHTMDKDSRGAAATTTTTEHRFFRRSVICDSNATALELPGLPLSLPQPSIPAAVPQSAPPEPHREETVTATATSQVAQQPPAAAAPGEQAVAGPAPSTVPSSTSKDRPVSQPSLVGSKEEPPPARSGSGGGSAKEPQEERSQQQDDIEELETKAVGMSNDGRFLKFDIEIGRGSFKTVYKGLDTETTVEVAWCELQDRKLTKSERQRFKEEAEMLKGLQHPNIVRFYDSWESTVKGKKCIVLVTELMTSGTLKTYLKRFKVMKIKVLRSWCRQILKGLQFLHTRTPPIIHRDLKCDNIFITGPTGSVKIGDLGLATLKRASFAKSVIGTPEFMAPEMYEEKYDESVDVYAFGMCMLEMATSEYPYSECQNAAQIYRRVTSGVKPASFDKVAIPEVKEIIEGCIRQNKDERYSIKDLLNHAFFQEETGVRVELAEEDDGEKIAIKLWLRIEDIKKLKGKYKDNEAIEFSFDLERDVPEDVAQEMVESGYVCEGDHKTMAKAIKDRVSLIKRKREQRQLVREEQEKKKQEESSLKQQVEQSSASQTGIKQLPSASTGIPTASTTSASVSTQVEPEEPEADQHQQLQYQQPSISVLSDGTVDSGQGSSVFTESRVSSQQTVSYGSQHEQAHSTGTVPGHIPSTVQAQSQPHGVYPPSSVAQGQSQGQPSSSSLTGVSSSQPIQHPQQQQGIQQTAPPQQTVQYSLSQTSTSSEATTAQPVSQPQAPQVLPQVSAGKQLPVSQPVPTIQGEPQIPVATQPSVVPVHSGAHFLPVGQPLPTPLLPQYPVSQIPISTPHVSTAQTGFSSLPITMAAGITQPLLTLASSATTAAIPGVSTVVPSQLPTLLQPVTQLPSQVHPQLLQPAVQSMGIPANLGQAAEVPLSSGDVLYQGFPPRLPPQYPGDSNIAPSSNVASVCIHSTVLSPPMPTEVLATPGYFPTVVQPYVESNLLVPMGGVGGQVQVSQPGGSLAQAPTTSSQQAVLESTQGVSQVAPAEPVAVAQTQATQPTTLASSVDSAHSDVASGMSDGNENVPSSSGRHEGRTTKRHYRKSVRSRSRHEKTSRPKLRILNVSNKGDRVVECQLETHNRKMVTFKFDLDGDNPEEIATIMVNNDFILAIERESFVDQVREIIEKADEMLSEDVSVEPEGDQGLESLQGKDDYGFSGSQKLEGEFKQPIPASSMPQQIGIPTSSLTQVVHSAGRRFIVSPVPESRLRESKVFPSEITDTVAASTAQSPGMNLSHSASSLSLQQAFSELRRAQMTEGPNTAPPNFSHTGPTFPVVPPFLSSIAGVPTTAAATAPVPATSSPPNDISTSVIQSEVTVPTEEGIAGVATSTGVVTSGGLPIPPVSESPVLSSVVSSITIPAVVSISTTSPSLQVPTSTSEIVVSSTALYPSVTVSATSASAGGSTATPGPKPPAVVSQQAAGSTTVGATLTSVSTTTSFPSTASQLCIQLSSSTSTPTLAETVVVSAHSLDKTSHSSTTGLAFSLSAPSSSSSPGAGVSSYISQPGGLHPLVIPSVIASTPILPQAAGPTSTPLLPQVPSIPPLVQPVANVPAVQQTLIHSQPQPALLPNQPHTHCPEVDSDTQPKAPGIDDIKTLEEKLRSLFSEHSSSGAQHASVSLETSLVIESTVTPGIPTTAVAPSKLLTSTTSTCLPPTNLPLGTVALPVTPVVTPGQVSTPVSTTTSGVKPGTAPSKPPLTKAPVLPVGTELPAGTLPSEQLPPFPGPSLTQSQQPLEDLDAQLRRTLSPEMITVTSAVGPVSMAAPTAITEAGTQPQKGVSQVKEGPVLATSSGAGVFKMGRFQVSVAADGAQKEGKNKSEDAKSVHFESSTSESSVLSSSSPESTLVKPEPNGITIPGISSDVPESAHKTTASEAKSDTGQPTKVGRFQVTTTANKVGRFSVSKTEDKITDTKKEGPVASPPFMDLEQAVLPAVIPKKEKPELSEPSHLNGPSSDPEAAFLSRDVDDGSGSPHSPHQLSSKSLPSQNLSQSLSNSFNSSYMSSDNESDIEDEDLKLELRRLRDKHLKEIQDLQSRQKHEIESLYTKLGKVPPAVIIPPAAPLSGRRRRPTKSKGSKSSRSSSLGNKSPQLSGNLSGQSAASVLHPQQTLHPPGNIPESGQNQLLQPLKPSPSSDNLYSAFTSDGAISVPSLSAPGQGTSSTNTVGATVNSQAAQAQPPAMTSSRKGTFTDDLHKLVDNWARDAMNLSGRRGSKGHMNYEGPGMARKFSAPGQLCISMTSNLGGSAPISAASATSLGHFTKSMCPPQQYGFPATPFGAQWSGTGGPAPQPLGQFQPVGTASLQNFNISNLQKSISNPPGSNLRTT

[40] = target: Tyrosine-protein kinase ZAP-70 (Homo sapiens) (UniProt P43403); conditions: Compound concentration 1000.0 nM
[41] = target: Mu-type opioid receptor (Homo sapiens) (UniProt P35372); conditions: Compound concentration 10.0 uM
[42] = target: Histamine H1 receptor (Homo sapiens) (UniProt P35367); conditions: Compound concentration 10.0 uM
[43] = target: Muscarinic acetylcholine receptor M4 (Homo sapiens) (UniProt P08173); conditions: Compound concentration 10.0 uM
[44] = target: GABA-A receptor; anion channel (Rattus norvegicus) (UniProt O09028+P15431+P18506+P18508+P19969+P20236+P23574+P23576+P28471+P28473+P30191+P62813+P63079+P63138+Q91ZM7+Q9ES14); conditions: Compound concentration 10.0 uM

`N#Cc1ccc(Nc2ccc3[nH]c(=O)[nH]c3c2)c(Cl)c1` was tested. Which residual activity [1] did it give?
The residual activity was 100%.

And the residual activity [2]?
The residual activity was 93%.

What about the residual activity [3] of the same compound?
Its residual activity is 100%.

And the residual activity [4]?
The residual activity was 100%.

And the residual activity [5]?
The residual activity was 100%.

And the residual activity [6]?
Its residual activity is 99%.

What about the residual activity [7] of the same compound?
The residual activity was 100%.

And the residual activity [8]?
Its residual activity is 96%.

What about the residual activity [9] of the same compound?
The residual activity was 97%.

What about the residual activity [10] of the same compound?
The residual activity was 94%.

And the residual activity [11]?
The residual activity was 100%.

What about the residual activity [12] of the same compound?
Its residual activity is 84%.

What about the residual activity [13] of the same compound?
The residual activity was 94%.

And the residual activity [14]?
The residual activity was 100%.

What about the residual activity [15] of the same compound?
The residual activity was 77%.

What about the residual activity [16] of the same compound?
The residual activity was 97%.

And the residual activity [17]?
The residual activity was 100%.

What about the residual activity [18] of the same compound?
Its residual activity is 100%.

What about the residual activity [19] of the same compound?
Its residual activity is 100%.

What about the residual activity [20] of the same compound?
Its residual activity is 100%.

What about the residual activity [21] of the same compound?
The residual activity was 100%.

What about the residual activity [22] of the same compound?
The residual activity was 55%.

What about the residual activity [23] of the same compound?
The residual activity was 100%.

And the residual activity [24]?
The residual activity was 100%.

And the residual activity [25]?
The residual activity was 100%.

What about the residual activity [26] of the same compound?
Its residual activity is 100%.

And the residual activity [27]?
Its residual activity is 92%.

And the residual activity [28]?
Its residual activity is 67%.

What about the residual activity [29] of the same compound?
The residual activity was 84%.

And the residual activity [30]?
The residual activity was 100%.

And the residual activity [31]?
Its residual activity is 100%.

And the residual activity [32]?
Its residual activity is 100%.

And the residual activity [33]?
The residual activity was 96%.

What about the residual activity [34] of the same compound?
The residual activity was 99%.

And the residual activity [35]?
The residual activity was 100%.

What about the residual activity [36] of the same compound?
The residual activity was 88%.

And the residual activity [37]?
Its residual activity is 99%.

And the residual activity [38]?
Its residual activity is 100%.

And the residual activity [39]?
Its residual activity is 100%.

What about the residual activity [40] of the same compound?
The residual activity was 90%.

And the inhibition [41]?
The inhibition was 0.37%.

What about the inhibition [42] of the same compound?
The inhibition was 14.7%.

What about the inhibition [43] of the same compound?
The inhibition was 11.6%.

And the inhibition [44]?
Its inhibition is 10.2%.

`O=C1CCc2cc(Nc3cc(OC4CCOCC4)c([N+](=O)[O-])cc3Cl)ccc2N1` was tested. Which residual activity [1] did it give?
Its residual activity is 74%.

What about the residual activity [2] of the same compound?
Its residual activity is 89%.

What about the residual activity [3] of the same compound?
The residual activity was 98%.

And the residual activity [4]?
The residual activity was 100%.

And the residual activity [5]?
Its residual activity is 100%.

What about the residual activity [6] of the same compound?
Its residual activity is 86%.

And the residual activity [7]?
Its residual activity is 69%.

What about the residual activity [8] of the same compound?
Its residual activity is 100%.

What about the residual activity [9] of the same compound?
The residual activity was 96%.

What about the residual activity [10] of the same compound?
The residual activity was 100%.

What about the residual activity [11] of the same compound?
The residual activity was 100%.

And the residual activity [12]?
Its residual activity is 95%.

And the residual activity [13]?
Its residual activity is 95%.

And the residual activity [14]?
Its residual activity is 99%.

What about the residual activity [15] of the same compound?
Its residual activity is 100%.

What about the residual activity [16] of the same compound?
The residual activity was 99%.

What about the residual activity [17] of the same compound?
Its residual activity is 100%.

And the residual activity [18]?
Its residual activity is 95%.

What about the residual activity [19] of the same compound?
Its residual activity is 95%.

What about the residual activity [20] of the same compound?
Its residual activity is 100%.

What about the residual activity [21] of the same compound?
The residual activity was 97%.

And the residual activity [22]?
The residual activity was 40%.

What about the residual activity [23] of the same compound?
Its residual activity is 100%.

What about the residual activity [24] of the same compound?
Its residual activity is 100%.

What about the residual activity [25] of the same compound?
Its residual activity is 88%.

What about the residual activity [26] of the same compound?
Its residual activity is 97%.

And the residual activity [27]?
Its residual activity is 75%.

What about the residual activity [28] of the same compound?
Its residual activity is 100%.

What about the residual activity [29] of the same compound?
The residual activity was 77%.

What about the residual activity [30] of the same compound?
Its residual activity is 100%.

And the residual activity [31]?
Its residual activity is 100%.

What about the residual activity [32] of the same compound?
Its residual activity is 92%.

And the residual activity [33]?
The residual activity was 81%.

And the residual activity [34]?
The residual activity was 100%.

And the residual activity [35]?
The residual activity was 100%.

And the residual activity [36]?
Its residual activity is 87%.

And the residual activity [37]?
The residual activity was 99%.

What about the residual activity [38] of the same compound?
Its residual activity is 100%.

What about the residual activity [39] of the same compound?
Its residual activity is 86%.

What about the residual activity [40] of the same compound?
Its residual activity is 91%.

And the inhibition [41]?
Its inhibition is 1.31%.

And the inhibition [42]?
The inhibition was 17%.

What about the inhibition [43] of the same compound?
The inhibition was 48.7%.

And the inhibition [44]?
The inhibition was 29.2%.
